Tests used:
[1] = biological target: T1, HARBS site of PDE4; assay: Displacement of [3H]-ROLIPRAM from the high affinity binding site (HARBS) in mouse brain membranes; conditions: for IC50: mouse brain membranes, [3H]-ROLIPRAM displacement
T1 construct: HARBS IC50; other: mouse brain membranes, [3H]-ROLIPRAM displacement; other: mouse brain; other: relative to ROLIPRAM (25, 26) or
Description: (§1) In order to perform this assay, female CD1 mice are sacrificed via the intraperitoneal injection of 100 μL ethanol, and the brain tissue is homogenized in 5 mL of ice-cold Tris-HCl, pH 8.00 supplemented with 1.2 mM MgCl2, 1 mM benzamidine (Sigma; Catalogue No. B 6506) and 0.1 mM PMSF (Sigma; Catalogue No. P 7626). The suspension is centrifuged twice at 30,000×G at 4° C. and then the supernatant discarded. The pellet is resuspended in buffer, and adjusted to a protein concentration of 0.5 mg/mL. Compounds to be tested are dissolved in DMSO and pipetted in triplicate into a 96 well microplate at concentrations ranging from 1 to 30,000 nM. […] The plate is incubated at 4° C. for 1 hour. Contents of the plate are aspirated through a Whatman GF/C filterplate, and rinsed with 4×200 μL ice-cold buffer. The plate is dried overnight, and then 30 μL of Microscint 20 (Packard; Catalogue No. 6013621) is added to each well, and plate is read in the scintillation counter with a sampling time of 2 minutes/well. […] Triplicate determinations should be performed at each concentration.

[2] = system: HARBS site of PDE4; assay: as above; conditions: for Ratio (PDE4/HARBS): ratio of PDE4 catalytic IC50 to HARBS IC50
Description: as §1

[3] = system: PDE4 (human promonocytic U937 cells); assay: PDE4 inhibition, Phosphodiesterase [3H] cAMP SPA enzyme assay with U937 extract; format: biochemical; conditions: 1 μM [3H] cAMP
Description: A test compound may be screened for activity against 11 of the major classes of mammalian cyclic nucleotide phosphodiesterase (termed PDE 1 through 11). These PDE's may use cAMP or cGMP or both cyclic nucleotides as substrates. […] PDE's for some of the various assays may be fully or partially purified from the following cells/tissues: PDE 1 (bovine heart), PDE 2 (human platelets), PDE 3 (human platelets), PDE4 (human promonocytic U937 cells) and PDE 5 (human platelets).
In the following descriptions, amounts are exemplary, and may be varied. […] Sonicated cell extracts are then centrifuged at 70,000 g for 30 minutes and supernatants removed. Sucrose is added to a final concentration of 0.25 M, then the extracts are aliquoted and stored at −80° C.
Briefly, the assay is run for 60 minutes at room temperature in 50 μL volumes in 1 μM [^3H] cAMP, 50 mM Tris Cl, 10 mM MgCl2 pH 7.5. U937 extract is added such that less than 10% of substrate was consumed. Test compound or vehicle is added to the desired concentration. […] Reactions are performed in duplicate. Reactions are terminated with 50 μl of Yttrium SPA beads and then counted on a Packard Scintillation counter (TopCount™) for 1 minute.

[4] = system: ferret model of emesis; assay: Emetic threshold after intravenous infusion in the ferret model of emesis; format: in vivo, ferret (Mustela putorius furo); conditions: for Emetic Threshold: 5 minute intravenous infusion, 3 hour observation
Description: The most recognized pre-clinical animal model for emesis is the ferret. The ferret undergoes a very characteristic, reproducible and well-documented series of behavioral responses, including backward walking, pawing of the mouth, arching of the back, retching and vomiting when dosed with an emetogenic compound. With respect to PDE4 inhibitors their emetogenic potential has been correlated with the ability of compounds to bind to a conformer of the enzyme to which ROLIPRAM™ binds with nanomolar affinity (the HARBS binding site). The central nervous system (CNS) and emetic effects of PDE4 inhibitors are therefore thought in large part to be due to the interaction of these compounds with this particular conformer of PDE4 which is especially prevalent in both the central and peripheral nervous system as well as in cells of the lumen of the gastrointestinal tract (i.e., parietal cells of the stomach).
Adult male ferrets (Mustela putorius furo, sable, 0.75-1.5 kg, Marshall Farms, USA) were quarantined and acclimated to the testing facility for seven days prior to initiation of the study. For intravenous infusion dosing, a catheter was surgically inserted in the jugular vein a minimum of 14 hours prior to administration of test articles and the catheter was maintained for patency by flushing with heparin solution daily. After surgery for catheter insertion the ferrets were individually housed in cages. Animals were fasted 12-16 hours prior to dosing and during the behavioral assessment period. They were returned to normal food diet after the observation periods. Animals found acceptable for inclusion in the study were randomly assigned to the each of the study groups (n=3 for each of the two treatment groups and n=3 for the vehicle negative control group).
Test compounds (ROLIPRAM™ and Compound 25) were freshly dissolved on the day of dosing in the vehicle, polyethylene glycol (PEG) 200 (Sigma catalogue number P-3015), to the required concentration in order to achieve the target dose. Animals in the control (PEG 200) and treatment (ROLIPRAM™ or Compound 25) groups were administered the dosing formulation at 3 ml/kg by intravenous infusion over a 5 minute period via the catheter inserted in the jugular. Continual observation for signs of emetic behavior were begun for each of the animals in the study groups immediately following completion of the 5 minute dosing period and for a period of three hours. Sequential recordings of emetic behaviour were noted on a separate data collection sheet for each animal which included the time of onset of each event as well as the duration and nature of the event (i.e., retching, gagging, vomiting, back arching, backward walking etc.).
The target doses for each of the test articles are shown below in Table 3. If animals expressed no emetic behaviour at the lowest dosage then animals were dosed again with semi-log increasing doses of test article and the three hour observation period repeated until the emetic threshold (lowest of test doses causing emesis) was reached or until the highest of the 4 target doses was completed. There was a 24 hr. washout period between each of the successive ascending doses of test article to allow the compound to clear the animals' system. […] If the emetic response was minimal at a particular dose level then the next dose level could be performed to confirm the threshold level.

IC50 [3] [nM]	reduction of HARBS binding affinity relative to parent non-benzylated compound ([1]; relative to ROLIPRAM (25, 26) or ARIFLO (41)) [fold]	Structure (SMILES)	IC50 [1] [nM]	Ratio (PDE4/HARBS) [2]	Emetic Threshold ([4]; ferrets) [mg/kg]	Emetic Threshold ([4]; ferrets, listed as compound 25)	higher doses required to achieve emesis compared to rolipram ([4]; ferrets, i.v. infusion)	emetic behaviour ([4]; up to and including highest dose level tested (3 mg/kg) i.v. infusion)	greater affinity to high affinity site than the concentration required for half-maximal inhibition of PDE4 catalytic activity [2] [fold]	emetic signs ([4]; 0.1 mg/kg i.v. infusion)	ferrets exhibiting a definite emetic response ([4]; 0.3 mg/kg i.v. infusion, n=3)	mild retches observed ([4]; 0.3 mg/kg i.v., in one ferret, over 9 minutes starting at 10 minutes post-dosing)
400	56	COc1cc(CC2C(=O)NCC2c2ccc(OC)c(OC3CCCC3)c2)ccc1OCc1ccccc1 (centres unmarked) [Compound 25]	361	1.1	>3.0	greater than 3 mg/kg	at least 10 fold	no emetic behaviour whatsoever	–	–	–	–
1490	–	COc1cc(CC2C(=O)NCC2c2ccc(OC)c(OC3CCCC3)c2)ccc1O (centres unmarked) [Compound 26]	–	–	–	–	–	–	–	–	–	–
–	–	COc1ccc(C2CNC(=O)C2)cc1OC1CCCC1 (centres unmarked) [ROLIPRAM ™, reference compound]	–	–	0.3	–	–	–	65	Emetic signs were also evident	one of the three ferrets	5

Structure (SMILES)	IC50 [3] [nM]	reduction of HARBS binding affinity relative to parent non-benzylated compound ([1]; relative to ROLIPRAM (25, 26) or ARIFLO (41)) [fold]	IC50 [1] [nM]	Ratio (PDE4/HARBS) [2]	Emetic Threshold ([4]; ferrets) [mg/kg]	Emetic Threshold ([4]; ferrets, listed as compound 25)	higher doses required to achieve emesis compared to rolipram ([4]; ferrets, i.v. infusion)	emetic behaviour ([4]; up to and including highest dose level tested (3 mg/kg) i.v. infusion)	greater affinity to high affinity site than the concentration required for half-maximal inhibition of PDE4 catalytic activity [2] [fold]	emetic signs ([4]; 0.1 mg/kg i.v. infusion)	ferrets exhibiting a definite emetic response ([4]; 0.3 mg/kg i.v. infusion, n=3)	mild retches observed ([4]; 0.3 mg/kg i.v., in one ferret, over 9 minutes starting at 10 minutes post-dosing)
COc1ccc([C@]2(C#N)CC[C@@H](C(=O)O)CC2)cc1OC1CCCC1 [ARIFLO ™, reference compound]	180	–	76	2.4	–	–	–	–	–	–	–	–

— patent US7459479B2, “Benzylated PDE4 inhibitors” (Biolipox AB, priority 2000, dated 2008)
